Data on one compound can be found in article PMC9532755, “Impact of lactisole on the time-intensity profile of selected sweeteners in dependence of the binding site” (Food Chemistry: X, 2022).

The test system of the test is perceived sweet intensity (panelists). The test can be described thus: Sensory time-intensity (TI) measurement of sweetness by a trained panel. In kind it is in vivo, human. Particulars: for AUC of time-intensity curve / lingering (intensity at 90 sec) / onset (time-point of first maximum intensity) / max. int. (maximum sweet intensity): lactisole alone, mean ± SEM; for AUC of time-intensity curve: 180 sec evaluation; for max. int. (maximum sweet intensity): unstructured scale 0-100. The source says:
All panelists gave their written informed consent for participating in the panel and had to complete a sensory training. […] On a last training day, the evaluation on unstructured scales and the time-dependent evaluation on the computer were trained. All panelists reported to be in good general health condition, and not being under medication or pregnant. At least one hour before every training or tasting, panelists were instructed not to smoke and not to consume intense tasting food or beverage (e.g. coffee, chili, garlic, chewing gum) and to avoid in general strong hunger or fullness as well as strong odors or perfume on test days.
Every test solution was assessed randomly at two different test days with at least 8 panelists participating per replicate. The panelists were free to choose to participate at the different test days. A maximum of five test compounds were assessed in one session. All samples were coded with three-digit random code and presented to the panelists in randomized order. On each test day, panelists were presented five sweet solutions with 0, 25, 50, 100 and 200 g/L sucrose as a scale training for the ratings from “not at all” to “very intensive” sweetness. […] The three minutes of evaluation were chosen to capture as much of the lingering as possible without wearing out the panelists during the evaluation. A total of 350 measuring time points was recorded within the pre-set time frame, especially to see differences in the first seconds of evaluation, which are important for the onset. The panelists were asked to take the sample (20 mL) into their mouth, while starting the timer and simultaneously the evaluation of sweet intensity over the time, and to spit out the sample after ten seconds while continuing the evaluation of the sweetness intensity until the end of the three minutes.
For comparison of the time-dependent properties, the following descriptors were used: the maximum intensity at the first 30 sec of evaluation as “max. intensity”, the time-point of the first maximum intensity as “onset” in sec, […], and the area under the curve from the time-intensity plots as “AUC” as a marker for the overall intensity and duration.
All sensory experiments were conducted at the Christian Doppler Laboratory for Taste Research at the Institute for Physiological Chemistry, University of Vienna, Austria, at room temperature (21 – 23 °C). • Calcium mobilization assay
The statistical analysis and graphical representation were performed with GraphPad Prism 9.0 for sensory results and with SigmaPlot 14.0 for cell experiments. To evaluate the sensory dose–response effects of ascending sweetener concentration w/o lactisole, an asymmetrical five-parameter curve (Richard́s five-parameter dose–response curve) was fitted. The data are presented as means ± SEM from at least 16 single evaluations. Statistical significance between the different test compounds and concentration-dependent effects was assessed by two-way ANOVAs with Tukey post hoc test using Graph Pad Prism. The normal distribution of the data sets was checked by evaluation of the kurtosis (between −7 to + 7) and the skewness (between −3 to + 3). Equal variance was tested using Levenés test. In case the assumptions of a normal distribution and equal variance were not met, the non-parametric ANOVA on ranks (Kruskal-Wallis Test) with Dunn's post-hoc test without the calculation of interaction was applied. A Pearson product moment correlation was conducted to investigate relationships between sensory results and cell responses of the tested sweeteners.

Regarding `COc1ccc(OC(C)C(=O)O)cc1` (stereo not drawn) [lactisole, sodium 2-(4-methoxyphenoxy) propanoate], the “time after which a sweet perception (sweet aftertaste) was reported” value (lactisole 0.46 mM and 0.92 mM, sip-and-spit, spit out after ten seconds) is given as “around 30 sec”. Moreover, under “0.46 mM”, the “AUC of time-intensity curve” value was found to be 4285 ± 926, the “lingering (intensity at 90 sec)” value was 16.96 ± 3.9, the “onset (time-point of first maximum intensity)” value is 106.0 ± 19.8 s and the “max. int. (maximum sweet intensity)” value worked out at 23.3 ± 4.0. In addition, for the setting “0.92 mM”, the “AUC of time-intensity curve” value is reported as 5990 ± 1122, the “lingering (intensity at 90 sec)” value is 21.12 ± 3.8, the “onset (time-point of first maximum intensity)” value stood at 144.9 ± 21.9 s and the “max. int. (maximum sweet intensity)” value came out at 29.8 ± 4.2.
